In PMC2805240 (Journal of chemical information and modeling, 2009):

Legend:
[1] = target: anthrax toxin lethal factor (Bacillus anthracis, UniProt P15917); test: biochemical
[2] = test system: LF; details: read-out: IC50 in a LF enzyme assay; cited from earlier work
[3] = test system: macrophage; details: cited from earlier work

Chain of anthrax toxin lethal factor (P15917 34-809 limits assumed): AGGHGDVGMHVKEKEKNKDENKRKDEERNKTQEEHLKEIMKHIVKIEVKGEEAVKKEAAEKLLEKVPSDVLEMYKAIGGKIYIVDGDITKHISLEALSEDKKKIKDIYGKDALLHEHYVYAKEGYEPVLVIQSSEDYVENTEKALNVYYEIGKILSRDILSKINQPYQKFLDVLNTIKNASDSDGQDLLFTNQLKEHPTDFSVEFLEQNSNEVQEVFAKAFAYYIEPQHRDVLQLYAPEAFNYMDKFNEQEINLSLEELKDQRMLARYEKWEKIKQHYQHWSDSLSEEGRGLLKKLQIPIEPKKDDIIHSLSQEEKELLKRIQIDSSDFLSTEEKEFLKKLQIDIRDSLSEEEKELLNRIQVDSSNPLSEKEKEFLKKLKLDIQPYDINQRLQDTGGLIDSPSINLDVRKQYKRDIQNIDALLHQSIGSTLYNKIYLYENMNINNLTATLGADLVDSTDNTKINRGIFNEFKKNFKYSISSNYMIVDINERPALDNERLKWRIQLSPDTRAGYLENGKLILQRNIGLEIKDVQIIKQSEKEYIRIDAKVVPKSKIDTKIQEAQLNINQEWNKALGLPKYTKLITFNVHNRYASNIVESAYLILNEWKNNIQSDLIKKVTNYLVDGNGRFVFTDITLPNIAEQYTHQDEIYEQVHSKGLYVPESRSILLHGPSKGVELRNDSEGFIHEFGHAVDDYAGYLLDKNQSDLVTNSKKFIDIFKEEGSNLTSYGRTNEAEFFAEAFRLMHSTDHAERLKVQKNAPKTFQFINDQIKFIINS

## CCN(Cc1ccccc1)Cc1cc(I)cc(I)c1O [compound 5426202, 2-[(benzyl(ethyl)amino)methyl]-4,6-diiodophenol]
[1]
  IC50: 49.5 ± 1.5 µM

## CNC(=O)[C@H](Cc1c[nH]c2ccccc12)NC(=O)[C@@H](CC(=O)NO)CC(C)C [GM6001/M364205, ilomastat]
[1]
  IC50: 10.2 ± 0.72 µM

## CCN(Cc1ccccc1)Cc1cc(Cl)ccc1O [compound 5421384, 2-[(benzyl(ethyl)amino)methyl]-4-chlorophenol]
[1]
  IC50: 67.5 ± 2 µM

## CCN(Cc1ccccc1)Cc1cc(Br)ccc1O [compound 5428736, 2-[(benzyl(ethyl)amino)methyl]-4-bromophenol]
[1]
  IC50: 73.9 ± 4.5 µM

## Cc1cc(S(=O)(=O)N[C@@H](C(=O)NO)C2CCOCC2)ccc1F [compound 40, (2R)-2-[(4-fluoro-3-methylphenyl)sulfonylamino]-N-hydroxy-2-(tetrahydro-2H-pyran-4-yl)acetamide]
[2]
  IC50: 0.054 µM
[3]
  IC50: 0.21 µM
